Laboratory results: patent publication US20240182495A1, “ANTIBACTERIAL COMPOUNDS” (JANSSEN SCIENCES IRELAND UNLIMITED COMPANY, priority 2021, published 2024)
Converted amounts (≈) assume the structure as drawn.

Tests used:
[1] = tested on: MDCK; assay: MDCK permeability / efflux; settings: A to B with inhibitor; further: unit not given here
[2] = Chemical stability testing in DMSO, ACN/H2O, ACN/0.1N HCl, ACN/0.1N NaOH (% by LCMS); type: physicochemical; settings: 48 h, 30 μM
Method: Preliminary Protocol • Add 3 μl of a 10 mM DMSO stock solution to 1 ml of the following solvents in a 1.5 ml HPLC vial. • DMSO (reference solution) • H2O/Acetonitril 1/1 (assay solution) • 0.1N HCl/Acetonitril 1/1 (assay solution) • Mix well, […] LCMS • Compare the chromatograms of the two assay solutions with the reference solution and report the additional peaks as degradation peaks

[3] = physchem; type: physicochemical
Excerpt: (§1) The compounds of the invention/examples may have advantages associated with in vitro potency, kill kinetics (i.e. bactericidal effect) in vitro, PK properties, food effect, safety/toxicity (including liver toxicity, coagulation, 5-LO oxygenase), metabolic stability, Ames II negativity, MINT negativity, aqueous based solubility (and ability to formulate) and/or cardiovascular effect e.g. on animals (e.g. anesthetized guinea pig). Data that is generated/calculated may be obtained using standard methods/assays, for instance that are available in the literature or which may be performed by a supplier (e.g. Microsomal Stability Assay—Cyprotex, Mitochondrial toxicity (Glu/Gal) assay—Cyprotex, as well as literature CYP cocktail inhibition assays). GSH can be measured (reactive metabolites, […]) to observe if a dihydrodiol is observed by LCMS (fragmentation ions), which would correspond to a dihydroxylation on the core heterocycle.

[4] = Hep t1/2 (hepatocyte stability), mouse; settings: hepatocytes
[5] = LM Clint (microsomal stability), mouse; type: in vitro ADME; settings: m (mouse) liver microsomes; read-out: LM Clint
Excerpt: as §1

[6] = tested on: CYPs (all isoforms, or the isoforms not named for that compound); assay: CYP cocktail inhibition, all / other isoforms; type: in vitro ADME; settings: read-out: CYPS IC50 (all / others)
Excerpt: as §1

[7] = target: T1, 2C8 (Homo sapiens, UniProt P10632); assay: CYP cocktail inhibition, 2C8; type: in vitro ADME; settings: read-out: CYPS IC50 2C8
T1 sequence (P10632 1-490): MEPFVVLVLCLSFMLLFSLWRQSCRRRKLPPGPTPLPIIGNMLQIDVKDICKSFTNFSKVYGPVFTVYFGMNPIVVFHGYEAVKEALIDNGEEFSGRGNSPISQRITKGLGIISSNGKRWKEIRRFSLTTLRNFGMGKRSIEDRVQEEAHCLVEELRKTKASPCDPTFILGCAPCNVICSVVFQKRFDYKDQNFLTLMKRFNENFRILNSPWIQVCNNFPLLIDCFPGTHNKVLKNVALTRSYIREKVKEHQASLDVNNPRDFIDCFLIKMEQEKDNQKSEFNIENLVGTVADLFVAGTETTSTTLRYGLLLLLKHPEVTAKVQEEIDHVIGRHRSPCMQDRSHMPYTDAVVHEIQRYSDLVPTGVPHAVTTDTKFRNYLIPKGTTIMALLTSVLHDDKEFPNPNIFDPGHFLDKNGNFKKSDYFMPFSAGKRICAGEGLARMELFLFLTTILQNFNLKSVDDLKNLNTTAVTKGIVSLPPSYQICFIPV
Excerpt: as §1

[8] = target: hERG (Homo sapiens, UniProt Q12809); assay: sync hERG; type: cell-based
Sequence of hERG (Q12809 whole entry): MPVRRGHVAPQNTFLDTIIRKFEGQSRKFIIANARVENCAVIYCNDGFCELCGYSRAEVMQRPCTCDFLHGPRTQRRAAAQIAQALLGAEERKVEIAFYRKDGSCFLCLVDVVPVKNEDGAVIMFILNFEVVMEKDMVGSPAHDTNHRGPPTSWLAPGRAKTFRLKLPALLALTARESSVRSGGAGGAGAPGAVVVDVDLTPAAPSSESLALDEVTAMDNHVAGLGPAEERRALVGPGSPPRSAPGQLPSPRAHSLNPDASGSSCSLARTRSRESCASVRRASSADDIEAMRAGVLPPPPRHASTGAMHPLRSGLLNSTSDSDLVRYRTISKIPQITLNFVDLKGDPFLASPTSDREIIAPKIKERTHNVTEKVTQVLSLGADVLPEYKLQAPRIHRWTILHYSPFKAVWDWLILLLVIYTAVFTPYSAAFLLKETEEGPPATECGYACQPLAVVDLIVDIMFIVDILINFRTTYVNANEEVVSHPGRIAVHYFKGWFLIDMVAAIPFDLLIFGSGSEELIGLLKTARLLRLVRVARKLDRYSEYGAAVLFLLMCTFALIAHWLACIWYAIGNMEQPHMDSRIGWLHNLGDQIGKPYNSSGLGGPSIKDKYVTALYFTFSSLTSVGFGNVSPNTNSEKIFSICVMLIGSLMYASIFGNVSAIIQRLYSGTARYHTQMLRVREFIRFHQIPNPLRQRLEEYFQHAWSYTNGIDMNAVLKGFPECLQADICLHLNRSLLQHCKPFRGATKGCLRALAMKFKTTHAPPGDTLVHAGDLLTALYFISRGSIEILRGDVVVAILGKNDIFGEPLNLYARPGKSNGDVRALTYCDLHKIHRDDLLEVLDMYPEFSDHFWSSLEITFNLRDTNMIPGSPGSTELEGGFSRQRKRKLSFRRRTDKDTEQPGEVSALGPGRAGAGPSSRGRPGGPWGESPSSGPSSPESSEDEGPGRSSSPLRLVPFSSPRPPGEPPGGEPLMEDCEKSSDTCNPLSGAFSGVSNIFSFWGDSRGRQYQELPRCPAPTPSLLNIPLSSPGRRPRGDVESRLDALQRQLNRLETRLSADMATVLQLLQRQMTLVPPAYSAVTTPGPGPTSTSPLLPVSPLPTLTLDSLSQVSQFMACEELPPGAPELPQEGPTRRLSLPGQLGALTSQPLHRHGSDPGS

[9] = tested on: Mycobacterium tuberculosis strain (EH4.0, GFP-expressing; Test 2: H37Rv); assay: MIC determination against M. tuberculosis, Test 1 (and/or Test 2); type: cell-based; settings: Mycobacterium tuberculosis, H37RV, 168 h, 7 days incubation, fluorescence
[10] = Mitochondrial toxicity (Glu/Gal) assay; type: cell-based; further: unit not given here
Excerpt: as §1

[11] = LM Clint (microsomal stability), human; type: in vitro ADME; settings: h (human) liver microsomes; read-out: LM Clint
Excerpt: as §1

[12] = AMES II; settings: score
Excerpt: as §1

[13] = physchem

CCc1nc2ncc(C)cn2c1C(=O)NCc1ccc(-c2cc3n(n2)CCN(S(=O)(=O)C(F)(F)F)C3)c(F)c1 [Compound 82]
MDCK AB+inh [1]: 16.2
chemical stability (% by LCMS) [2]: 100%
chemical stability (% by LCMS) ([2]; pH 1.6): 100%
solubility thermodynamic ([3]; pH 2, simulated gastric fluid, thermodynamic from solid): 12.3 µM (≈ 6.96 µg/mL)
solubility thermodynamic ([3]; pH 4, aqueous buffer): < 0.02 µM
half-life [4]: 16.5 min
microsomal CLint [5]: 28 µL/min/mg
IC50 [6]: > 19.5 µM
IC50 [7]: 10.6 µM
IC50 [8]: 20.4 µM
IC50 [9]: 0.00282 µM
Glu/Gal: Gal ([10]; galactose medium): > 25
Glu/Gal: Glu ([10]; glucose medium): > 25
microsomal CLint [11]: 231 µL/min/mg
AMES II [12]: 1
solubility ([13]; fassif): 24.5 µM (≈ 13.9 µg/mL)
solubility ([13]; fessif): 8.8 µM (≈ 4.98 µg/mL)
